Source: PMC3848335, “Structure–Activity Relationships and Molecular Modeling of Sphingosine Kinase Inhibitors” (Journal of Medicinal Chemistry, 2013)
“Also recorded” adds a separate entry of the source.

Legend:
SK1 [1] = target: T1, SK1 (Homo sapiens, UniProt Q9NYA1); assay: SK1 activity assay (inhibition; [γ-32P]ATP, recombinant SK1 in HEK 293 cell lysates); type: biochemical; design: made in house; host or cells: HEK 293 cells (lysate, not purified); settings: for SK1 inhibition (in words): 3 μM Sph, 250 μM ATP (Figure 3); for isoform selectivity SK1 vs SK2 (in words): comparison of inhibition of SK1 (3 μM Sph) and SK2 (10 μM Sph)
SK1 [2] = target: T1, SK1; assay: Evaluation of compounds as putative substrates of SK1 (absence of Sph); settings: 50 μM compound, 250 μM ATP
SK2 [3] = target: T2, SK2 (Homo sapiens, UniProt Q9NRA0); assay: Evaluation of compounds as putative substrates of SK2 (absence of Sph); settings: 50 μM compound, 250 μM ATP, absence of Sph (Fig. S1)
T2 sequence (Q9NRA0 1-654): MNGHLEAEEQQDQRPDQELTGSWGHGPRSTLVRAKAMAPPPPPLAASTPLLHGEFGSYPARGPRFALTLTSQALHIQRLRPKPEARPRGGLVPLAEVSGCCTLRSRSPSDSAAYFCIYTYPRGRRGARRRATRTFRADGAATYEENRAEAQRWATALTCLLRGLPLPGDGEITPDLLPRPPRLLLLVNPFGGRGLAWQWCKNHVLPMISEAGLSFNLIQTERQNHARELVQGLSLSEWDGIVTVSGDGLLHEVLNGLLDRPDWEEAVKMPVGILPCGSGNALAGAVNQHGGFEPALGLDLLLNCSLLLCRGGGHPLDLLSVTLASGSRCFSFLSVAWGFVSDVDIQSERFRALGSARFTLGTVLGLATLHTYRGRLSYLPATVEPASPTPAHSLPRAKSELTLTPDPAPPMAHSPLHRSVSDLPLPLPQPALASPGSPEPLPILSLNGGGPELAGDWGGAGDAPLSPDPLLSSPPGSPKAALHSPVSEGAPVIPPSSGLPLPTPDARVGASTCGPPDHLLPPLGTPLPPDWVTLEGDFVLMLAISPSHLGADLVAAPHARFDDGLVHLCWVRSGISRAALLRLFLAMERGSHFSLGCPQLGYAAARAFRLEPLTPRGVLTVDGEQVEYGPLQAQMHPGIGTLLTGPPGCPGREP

SK2 [4] = target: T2, SK2; assay: SK2 activity assay (inhibition; [γ-32P]ATP, purified SK2); type: biochemical; settings: 50 μM compound, 10 μM Sph, 250 μM ATP (Figure 3)
Procedure: To examine SAR among a panel of related compounds, we prepared a series of analogues bearing a 4-hydroxypiperidinyl group but varied the linker length between the aryl group and the piperidine. We also assessed the role of the alkyl substituent in the aryl group.
Figure 3 Effect of inhibitors on SK1 or SK2 activity. SK1 activity was measured using 3 μM Sph and 250 μM ATP. SK2 activity was assayed using 10 μM Sph and 250 μM ATP (n = 3 for each compound; results are expressed as % of control ± SD). […]. The control is 100% and equals activity against Sph alone.
Sphingosine kinase activity assays.
For SK2 activity assays, sphingosine (Sph) was complexed with fatty acid free bovine serum albumin (final concentration, 0.2 mg/mL) in reaction buffer 1 containing 20 mM Tris (pH 7.4), 1 mM EDTA, 1 mM Na3VO4, 40 mM β−glycerophosphate, 1 mM NaF, 0.007% (v/v) β6mercaptoethanol, 20% (v/v) glycerol, 10 µg/mL aprotinin, 10 µg/mL soybean trypsin inhibitor, 1 mM PMSF, 0.5 mM 46 deoxypyridoxine, and 400 mM KCl. Inhibition of SK2 activity was determined by incubating 37 ng of purified SK2 for 30 min at 30 °C in the presence of 10 µM Sph, 250 µM of [γ632P]ATP (specific activity, 4.4×10^4 cpm/nmol) in 10 mM MgCl2, and varying concentrations of the inhibitors dissolved in DMSO or control (5% v/v DMSO). […]
Compounds bearing hydroxyl groups were assessed for their ability to act as substrates for SK1 and […]

T1 sequence (Q9NYA1 whole entry, canonical isoform): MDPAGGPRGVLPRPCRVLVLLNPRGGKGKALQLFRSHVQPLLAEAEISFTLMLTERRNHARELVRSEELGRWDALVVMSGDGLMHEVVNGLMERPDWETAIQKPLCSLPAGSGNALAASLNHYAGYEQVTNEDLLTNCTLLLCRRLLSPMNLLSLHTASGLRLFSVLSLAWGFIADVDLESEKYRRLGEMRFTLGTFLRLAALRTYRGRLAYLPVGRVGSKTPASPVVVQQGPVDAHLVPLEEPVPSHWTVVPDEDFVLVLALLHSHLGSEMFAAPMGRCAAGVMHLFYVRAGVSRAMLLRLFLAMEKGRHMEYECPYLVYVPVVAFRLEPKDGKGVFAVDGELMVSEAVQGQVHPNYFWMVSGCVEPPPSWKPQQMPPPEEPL

Row | Molecule | SK1 inhibition (in words) (SK1 [1]; 50 μM compound) | further results
1 | Cc1ccc(CCN2CCC[C@@H]2CO)cc1 [RB-039, (R)-(1-(4-Methylphenethyl)pyrrolidin-2-yl)methanol] | abolished | 
2 | CCCCCCCCc1ccc(CCCN2CCC(O)CC2)cc1 [RB-024, 1-(3-(4-Octylphenyl)propyl)piperidin-4-ol] | did not significantly alter | 
3 | CCCCCCCCc1ccc(CCCCN2CCC(O)CC2)cc1 [RB-025, 1-(4-(4-Octylphenyl)butyl)piperidin-4-ol] | did not significantly alter | substrate for SK1 (in words) (SK1 [2]): not substrates for SK1
4 | CCCCCCCCc1ccc(CCN2CC[C@H](O)C2)cc1 [RB-037, (S)-1-(4-Octylphenethyl)pyrrolidin-3-ol] | retained inhibitory activity against SK1 | substrate for SK2 (in words) (SK2 [3]): weak substrates for SK2
5 | Cc1ccc(CCN2CCC(O)CC2)cc1 [RB-026, 1-(4-Methylphenethyl)piperidin-4-ol] | almost complete lack of inhibition | decrease of SK1 inhibition compared with RB-023 (SK1 [1]; 50 μM compound): more than 6 fold
6 | 1-Methyl-4-(4-octylphenethyl)pyridinium Iodide [RB-052] | ineffective as SK inhibitors | 
7 | CCCCCCCCc1ccc(CCN2CCC(OC)CC2)cc1 [RB-036, 4-Methoxy-1-(4-octylphenethyl)piperidine] | eliminated inhibitory activity against SK1 | 
8 | CCCCCCCCc1cn(-c2ccc(CC[N+]3(C)CCCCC3)cc2)nn1.CS(=O)(=O)[O-] [RB-062, 1-Methyl-1-(4-(4-octyl-1H-1,2,3-triazol-1-yl)phenethyl)piperidinium Methanesulfonate] | ineffective as SK inhibitors | 
9 | CCCCCCCCCCCCc1ccc(CCN2CCC(O)CC2)cc1 [RB-028, 1-(4-Dodecylphenethyl)piperidin-4-ol] |  | substrate for SK1 (in words) (SK1 [2]): not substrates for SK1
10 | Cc1ccc(CCN2CCC(N=[N+]=[N-])CC2)cc1 [RB-029, 4-Azido-1-(4-methylphenethyl)piperidine] | reduced SK1 inhibition markedly | 
11 | CCCCCCCCc1ccc(C(=O)NCc2ccncc2)cc1 [RB-048, 4-Octyl-N-(pyridin-4-ylmethyl)benzamide] | effectively abolished | 
12 | CCCCCCCCc1ccc(C[n+]2ccc(N3CCC(C)CC3)cc2)cc1.[Br-] [RB-053, 4-(4-Methylpiperidin-1-yl)-1-(4-octylbenzyl)pyridinium Bromide] | ineffective as SK inhibitors | isoform selectivity SK1 vs SK2 (in words) (SK1 [1]): moderate selectivity for SK2
13 | CCCCCCCCc1ccc(CCN2CCC(F)CC2)cc1 [RB-034, 4-Fluoro-1-(4-octylphenethyl)piperidine] | eliminated inhibitory activity against SK1 | 
14 | CCCCCCCCCCCCc1ccc(CCN2CCC[C@@H]2CO)cc1 [RB-042, (R)-(1-(4-Dodecylphenethyl)pyrrolidin-2-yl)methanol] |  | isoform selectivity SK1 vs SK2 (in words) (SK1 [1]): equipotent inhibitors of SK1 and SK2
15 | CCCCCCCCc1cn(-c2ccc(CCN3CCC(O)CC3)cc2)nn1 [RB-065] |  | isoform selectivity SK1 vs SK2 (in words) (SK1 [1]): highly selective SK1 inhibitor
16 | CCCCCCCCc1ccc(CCN2CCC(=O)CC2)cc1 [RB-035, 1-(4-Octylphenethyl)piperidin-4-one] | maintained inhibition of SK1 | SK2 inhibition (in words) (SK2 [4]): increased inhibition of SK2; isoform selectivity SK1 vs SK2 (in words) (SK1 [1]): eliminated the isoform selectivity
17 | CCCCCCCCc1ccc(CN2CCC(O)CC2)cc1 [RB-023, 1-(4-Octylbenzyl)piperidin-4-ol] | did not significantly alter | 
18 | CCCCCCCCCCCCc1ccc(CCN2CCC[C@H]2CO)cc1 [RB-043, (S)-(1-(4-Dodecylphenethyl)pyrrolidin-2-yl)methanol] | much less active; also recorded: abolished | substrate for SK2 (in words) (SK2 [3]): weak substrates for SK2
19 | CCCCCCCCc1ccc(CCN2CCC[C@H]2CO)cc1 [RB-041, (S)-(1-(4-Octylphenethyl)pyrrolidin-2-yl)methanol] | much less active | substrate for SK2 (in words) (SK2 [3]): weak substrates for SK2
20 | Cc1ccc(CCN2CCC(N)CC2)cc1 [RB-031, 1-(4-Methylphenethyl)piperidin-4-amine] | eliminated the inhibitory activity toward SK1 | 
21 | CCCCCCCCc1ccc(CCN2CC[C@@H](O)C2)cc1 [RB-038, (R)-1-(4-Octylphenethyl)pyrrolidin-3-ol] | retained inhibitory activity against SK1 | 
22 | CCCCCCCCCCCCc1ccc(CCN2CCC(N)CC2)cc1 [RB-033, 1-(4-Dodecylphenethyl)piperidin-4-amine] | eliminated the inhibitory activity toward SK1 | 
23 | 4-(4-Octylphenethyl)pyridine [RB-051] | effectively abolished | 
24 | CCCCc1cn(-c2ccc(CC[N+]3(C)CCCCC3)cc2)nn1.CS(=O)(=O)[O-] [RB-060, 1-(4-(4-Butyl-1H-1,2,3-triazol-1-yl)phenethyl)-1-methylpiperidinium Methanesulfonate] | ineffective as SK inhibitors | 
25 | CCCCCc1cn(-c2ccc(CC[N+]3(C)CCCCC3)cc2)nn1.CS(=O)(=O)[O-] [RB-061, 1-Methyl-1-(4-(4-pentyl-1H-1,2,3-triazol-1-yl)phenethyl)piperidinium Methanesulfonate] | ineffective as SK inhibitors | 
26 | CCCCCCCCc1ccc(CCN2CCC[C@@H]2CO)cc1 [RB-040, (R)-(1-(4-Octylphenethyl)pyrrolidin-2-yl)methanol] |  | isoform selectivity SK1 vs SK2 (in words) (SK1 [1]): equipotent inhibitors of SK1 and SK2
27 | CCCCCCCCc1ccc(CCN2CCC(N=[N+]=[N-])CC2)cc1 [RB-030, 4-Azido-1-(4-octylphenethyl)piperidine] | reduced SK1 inhibition markedly | 
28 | CCCCCCCCc1ccc(CCN2CCC(N)CC2)cc1 [RB-032, 1-(4-Octylphenethyl)piperidin-4-amine] | diminished the potency of SK1 inhibition | isoform selectivity SK1 vs SK2 (in words) (SK1 [1]): isoform selectivity of SK1 over SK2 was retained
